One assay has as its system H1299 (lung). Briefly: In vitro cytotoxic activity assay (MTT), H1299. The class given is cell-based. The following applies: Homo sapiens, NCI-H1299; H1299 (lung) cells, exposed for 96 hours; read-out: Cytotoxicity activity IC50. Here is the method:
(§1) Compounds 1-16 were screened for their in vitro cytotoxic activity utilizing a 3-(4,5-dimethyl-thiazol-2-yl)-2,5-diphenyltetrazolium bromide (MTT) assay against selected cancer human cell lines consisting of PC3 (prostate), HCT116 (colon), A375 (melanoma), H1299 (lung), MIAPaCa-2 (pancreas), HL60 (leukemia), MCF7 (breast), MDA-MB-231 (breast) (T. Mosmann, J. Immunol. Meth., 1983, 65, 55-63). The cells were cultured at 37° C. in RMPI1640 medium supplemented with 10% fetal bovine serum, 50 IU/mL penicillin, and 50 μg/mL streptomycin in a 5% CO2 incubator. All cells were sub-cultured 3 times/week by trypsinisation. Viable cells were seeded and allowed to adhere for 12 hours before a test drug was added in 96-well plates at an initial density of 1.0×10^5 cells/mL. Tumor cell lines were separately exposed to various concentrations of the tested compounds followed by incubation at a temperature of 37° C. during 96 hours inside a medium of fresh RMPI 1640. Cells were subsequently incubated at 37° C. using MTT at 0.5 mg/mL during 4 hours. After removal of supernatant, formazan crystals were dissolved in isopropanol and the optical density was measured at 570 nm. CX-4945 was used as a positive control.

For the next assay, the system named is MCF7 (breast). Briefly: In vitro cytotoxic activity assay (MTT), MCF7. In kind it is cell-based. The following applies: Homo sapiens; MCF7 (breast) cells, exposed for 96 hours; read-out: Cytotoxicity activity IC50. Here is the method:
as §1

In another assay the test system is PC3 (prostate). Briefly: In vitro cytotoxic activity assay (MTT), PC3. The class given is cell-based. The following applies: Homo sapiens, Prostate cell; PC3 (prostate) cells, exposed for 96 hours; read-out: Cytotoxicity activity IC50. Here is the method:
as §1

The subject of a further assay is A375 (melanoma). Briefly: In vitro cytotoxic activity assay (MTT), A375. In kind it is cell-based. The following applies: Homo sapiens, A-375; A375 (melanoma) cells, exposed for 96 hours; read-out: Cytotoxicity activity IC50. On the procedure: as §1
A further assay relates to HL60 (leukemia). Briefly: In vitro cytotoxic activity assay (MTT), HL60. The class given is cell-based. The following applies: Homo sapiens, HL-60; HL60 (leukemia) cells, exposed for 96 hours; read-out: Cytotoxicity activity IC50. Here is the method:
as §1

Another assay deals with HCT116 (colon). Briefly: In vitro cytotoxic activity assay (MTT), HCT116. The class given is cell-based. The following applies: Homo sapiens, HCT-116; HCT116 (colon) cells, exposed for 96 hours; read-out: Cytotoxicity activity IC50. On the procedure:
as §1

In the next assay the test system is MIAPaCa-2 (pancreas). Briefly: In vitro cytotoxic activity assay (MTT), MIAPaCa-2. The following applies: Homo sapiens, MIA PaCa-2; MIAPaCa-2 (pancreas) cells, exposed for 96 hours; read-out: Cytotoxicity activity IC50. The class given is cell-based. Here is the method:
as §1

In a further assay the test system is MDA-MB-231 (breast). Briefly: In vitro cytotoxic activity assay (MTT), MDA-MB-231. The following applies: Homo sapiens; MDA-MB-231 (breast) cells, exposed for 96 hours; read-out: Cytotoxicity activity IC50. The class given is cell-based. On the procedure: as §1
Assay [1] deals with T1, recombinant human CK2 (RRββ-holoenzyme) (Homo sapiens, UniProt P68400).
T1 construct: purchased Millipore
T1 sequence (P68400 whole entry): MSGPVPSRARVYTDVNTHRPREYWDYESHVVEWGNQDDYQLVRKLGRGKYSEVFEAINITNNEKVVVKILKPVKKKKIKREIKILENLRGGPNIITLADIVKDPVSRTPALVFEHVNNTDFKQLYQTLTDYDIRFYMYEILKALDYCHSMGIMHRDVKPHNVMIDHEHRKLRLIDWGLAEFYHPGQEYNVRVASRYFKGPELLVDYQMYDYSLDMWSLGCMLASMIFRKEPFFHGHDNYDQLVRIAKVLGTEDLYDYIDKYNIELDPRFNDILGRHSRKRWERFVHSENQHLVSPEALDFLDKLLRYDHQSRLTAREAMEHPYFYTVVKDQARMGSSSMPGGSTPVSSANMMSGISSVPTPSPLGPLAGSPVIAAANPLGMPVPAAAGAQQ
T1 sequence (P67870 whole entry partner): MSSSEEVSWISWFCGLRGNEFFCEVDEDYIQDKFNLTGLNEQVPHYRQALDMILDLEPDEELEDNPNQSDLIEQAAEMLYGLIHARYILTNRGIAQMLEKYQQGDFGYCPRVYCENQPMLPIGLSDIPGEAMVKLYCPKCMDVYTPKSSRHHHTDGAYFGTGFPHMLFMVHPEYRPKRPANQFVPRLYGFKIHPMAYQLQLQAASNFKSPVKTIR
Briefly: CK2 Kinase Assay (radiometric, [γ-33P]ATP). In kind it is biochemical. The following applies: final ATP concentration 15 μM, 10 min at 30° C.; read-out: protein kinase CK2 inhibition IC50. On the procedure: CK2 Kinase Assay was conducted using the protocol as described in Pierre F. et al; J. Med. Chem. 2011, 54, 635-654. The tested compounds in aqueous solution were added at a volume of 10 μL to a reaction mixture comprising 10 μL of assay dilution buffer (ADB; 20 mM MOPS, pH 7.2, 25 mM β-glycerol phosphate, 5 mM EGTA, 1 mM sodium orthovanadate, and 1 mM dithiothreitol), 10 μL of substrate peptide (RRRDDDSDDD, dissolved in ADB at a concentration of 1 mM), 10 μL of recombinant human CK2 (RRββ-holoenzyme, 25 ng dissolved in ADB; Millipore). Reactions were initiated by the addition of 10 μL of ATP solution (90% 75 mMMgCl2, 75 μM ATP (final ATP concentration: 15 μM) dissolved in ADB; 10% [γ-33P] ATP (stock 1 mCi/100 μL; 3000 Ci/mmol (Perkin-Elmer) and maintained for 10 min at 30° C. The reactions were quenched with 100 μL of 0.75% phosphoric acid and then transferred to and filtered through a phosphor cellulose filter plate (Millipore). After washing each well five times with 0.75% phosphoric acid, the plate was dried under vacuum for 5 min and, following the addition of 15 μL of scintillation fluid to each well, the residual radioactivity was measured using a Wallac luminescence counter. The IC50 values were derived from eight concentrations of test inhibitors.

As for `O=C(O)c1cnc2c3cnccc3nc(Nc3cccc(Cl)c3)n12` [Compound 1, 5-((3-chlorophenyl)amino)imidazo[1,2-c]pyrido[3,4-e]pyrimidine-3-carboxylic acid], the half-inhibitory concentration (IC50) in the assay with H1299 (lung) was 2.9 µM; with MCF7 (breast), 5.3 µM; with PC3 (prostate), 1.8 µM; in the assay on A375 (melanoma), 5.6 µM; in the assay on HL60 (leukemia), 6.7 µM; in the assay on HCT116 (colon), 3.2 µM. Further, the half-maximal inhibitory concentration (IC50) in the assay with MIAPaCa-2 (pancreas) is 1.6 µM; in the assay on MDA-MB-231 (breast) it was 4.9 µM; in assay [1], 0.035 µM.

What is called IC50 is the midpoint of a concentration-inhibition curve.

Values taken from patent US11964974B1, “Imidazo[1,2-c]pyrido[3,4-e]pyrimidine-3-carboxylic acids as CK2 inhibitors” (KING FAISAL UNIVERSITY, priority 2024, dated 2024).
